# Assays:
# NCI-H522 = assay: NCI one-dose SRB assay (Non-Small Cell Lung Cancer); format: cell-based, human; conditions: for inhibition at 10 µM: Homo sapiens, read-out: Percentage growth inhibition (GI%); for Growth Percent: NCI-H522, 1.00E-5 Molar
# Protocol: (§1) The structures of all the newly prepared pyridine-ureas 8a–n were submitted to the National Cancer Institute (NCI) Developmental Therapeutic Program. Eight compounds 8b, 8d, 8e, 8i, 8j and 8l–n were selected to be examined for their in vitro growth inhibitory activity. The anticancer assays were carried out according to the protocol of the Drug Evaluation Branch, NCI, Bethesda. The selected pyridine-ureas were tested at one dose primary anticancer assay against a panel of approximately 58 cancer lines (concentration 10^−5 M). The tested human cancer cell lines emerged from nine different cancer subtypes: leukemia, colon, melanoma, ovarian, lung, CNS, renal, breast and prostate cancers. The sulforhodamine B (SRB) protein assay was adopted to estimate the cell viability and growth. The results were reported as mean-graph of the percentage growth of the treated cells, and presented as percentage growth inhibition (GI%) caused by the test compounds (Table 2).
# (§2) The anticancer assays were performed in accordance with the protocol of the Drug Evaluation Branch, NCI, Bethesda. A 48 h drug exposure protocol was used and sulforhodamine B (SRB) protein assay was applied to estimate the cell viability and growth, as reported earlier.
# NCI-H23 = assay: as above; format: cell-based, human; conditions: for inhibition at 10 µM: Homo sapiens, read-out: Percentage growth inhibition (GI%); for Growth Percent: NCI-H23, 1.00E-5 Molar
# Protocol: as §1, §2
# HOP-92 = assay: as above; format: cell-based, human; conditions: for Growth Percent: HOP-92, 1.00E-5 Molar; for inhibition at 10 µM: Homo sapiens, read-out: Percentage growth inhibition (GI%)
# Protocol: as §1, §2
# A549/ATCC = assay: as above; format: cell-based, human; conditions: for Growth Percent: 1.00E-5 Molar; for inhibition at 10 µM: Homo sapiens, read-out: Percentage growth inhibition (GI%)
# Protocol: as §1, §2
# NCI-H322M = assay: as above; format: cell-based, human; conditions: for Growth Percent: 1.00E-5 Molar; for inhibition at 10 µM: Homo sapiens, read-out: Percentage growth inhibition (GI%)
# Protocol: as §1, §2
# NCI-H226 = assay: as above; format: cell-based, human; conditions: for inhibition at 10 µM: Homo sapiens, read-out: Percentage growth inhibition (GI%); for Growth Percent: NCI-H226, 1.00E-5 Molar
# Protocol: as §1, §2
# EKVX = assay: as above; format: cell-based, human; conditions: for Growth Percent: 1.00E-5 Molar; for inhibition at 10 µM: Homo sapiens, read-out: Percentage growth inhibition (GI%)
# Protocol: as §1, §2
# HOP-62 = assay: as above; format: cell-based, human; conditions: for Growth Percent: HOP-62, 1.00E-5 Molar; for inhibition at 10 µM: Homo sapiens, read-out: Percentage growth inhibition (GI%)
# Protocol: as §1, §2
# NCI-H460 = assay: as above; format: cell-based, human; conditions: for inhibition at 10 µM: Homo sapiens, read-out: Percentage growth inhibition (GI%); for Growth Percent: NCI-H460, 1.00E-5 Molar
# Protocol: as §1, §2
# VEGFR-2 = VEGFR-2 (Homo sapiens, UniProt P35968); assay: VEGFR-2 inhibitory assay (Alpha Screen, anti-phosphotyrosine antibody)
# [1] = test system: non-tumorigenic human lung fibroblast WI-38 cell line; assay: Cytotoxic activity against non-tumorigenic cells, MTT assay; format: cell-based; conditions: WI-38, MTT
# Protocol: The cytotoxic activity of compounds 8b and 8e were evaluated against non-tumorigenic human lung fibroblast WI-38 cell line utilizing the MTT colorimetric assay developed by T. Mosmann (Table 3).
# MCF-7 (human breast cancer cell line) and WI-38 (human lung fibroblast cell line), were obtained from American Type Culture Collection (Manassas, VA, USA). The cells were propagated in DMEM and supplemented with 10% heat-inactivated FBS (Hyclone), 10 μg/mL of insulin (Manufacturer, Sigma, St. Louis, MO, USA), and 1% penicillin-streptomycin. MTT assay was utilized to examine the in vitro anti-proliferative activity of the newly prepared ureas following the reported procedures. […] The data presented are the mean of at least three separate experiments.
# VEGFR-2, sequence (P35968 20-1356, species assumed): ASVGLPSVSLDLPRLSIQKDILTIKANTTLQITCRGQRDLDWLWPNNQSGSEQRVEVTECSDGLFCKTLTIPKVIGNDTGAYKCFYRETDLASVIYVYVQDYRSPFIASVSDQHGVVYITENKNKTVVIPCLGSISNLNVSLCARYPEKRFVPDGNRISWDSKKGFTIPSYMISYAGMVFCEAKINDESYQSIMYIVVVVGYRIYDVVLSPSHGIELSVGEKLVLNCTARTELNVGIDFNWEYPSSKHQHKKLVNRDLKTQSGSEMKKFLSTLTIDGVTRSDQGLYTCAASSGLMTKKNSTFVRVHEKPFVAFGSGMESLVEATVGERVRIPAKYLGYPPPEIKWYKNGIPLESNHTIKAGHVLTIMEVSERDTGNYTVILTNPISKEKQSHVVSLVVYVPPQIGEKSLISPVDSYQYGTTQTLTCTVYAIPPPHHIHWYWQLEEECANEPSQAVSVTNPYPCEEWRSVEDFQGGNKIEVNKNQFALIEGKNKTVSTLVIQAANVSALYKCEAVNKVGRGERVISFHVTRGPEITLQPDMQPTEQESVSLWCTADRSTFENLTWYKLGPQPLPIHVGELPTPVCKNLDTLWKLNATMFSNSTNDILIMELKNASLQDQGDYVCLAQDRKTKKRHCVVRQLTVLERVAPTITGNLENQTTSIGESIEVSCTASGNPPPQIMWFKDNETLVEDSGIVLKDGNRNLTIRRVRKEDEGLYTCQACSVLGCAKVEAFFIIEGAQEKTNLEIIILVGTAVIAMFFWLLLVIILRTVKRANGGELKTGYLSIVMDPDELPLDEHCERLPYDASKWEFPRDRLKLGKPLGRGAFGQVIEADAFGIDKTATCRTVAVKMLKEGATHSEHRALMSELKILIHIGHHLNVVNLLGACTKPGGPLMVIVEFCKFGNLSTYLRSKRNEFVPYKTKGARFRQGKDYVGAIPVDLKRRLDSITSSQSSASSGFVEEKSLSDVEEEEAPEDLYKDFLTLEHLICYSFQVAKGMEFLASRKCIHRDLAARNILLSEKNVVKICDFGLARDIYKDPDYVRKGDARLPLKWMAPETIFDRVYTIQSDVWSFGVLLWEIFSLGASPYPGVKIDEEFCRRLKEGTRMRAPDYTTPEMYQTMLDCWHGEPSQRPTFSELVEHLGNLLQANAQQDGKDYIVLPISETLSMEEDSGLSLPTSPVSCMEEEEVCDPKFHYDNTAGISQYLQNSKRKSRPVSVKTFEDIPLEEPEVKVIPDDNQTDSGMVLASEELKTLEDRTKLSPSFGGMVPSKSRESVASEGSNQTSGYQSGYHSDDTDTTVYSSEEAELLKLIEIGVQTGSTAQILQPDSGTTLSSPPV
Compound,"inhibition at 10 µM (NCI-H522; NCI-H522, 10 μM)",Growth Percent (NCI-H522),"inhibition at 10 µM (NCI-H23; NCI-H23, 10 μM)",Growth Percent (NCI-H23),Growth Percent (HOP-92),"inhibition at 10 µM (HOP-92; HOP-92, 10 μM)",Growth Percent (A549/ATCC),inhibition at 10 µM (A549/ATCC; 10 μM),Growth Percent (NCI-H322M),inhibition at 10 µM (NCI-H322M; 10 μM),"inhibition at 10 µM (NCI-H226; NCI-H226, 10 μM)",Growth Percent (NCI-H226),Growth Percent (EKVX),inhibition at 10 µM (EKVX; 10 μM),Growth Percent (HOP-62),"inhibition at 10 µM (HOP-62; HOP-62, 10 μM)","inhibition at 10 µM (NCI-H460; NCI-H460, 10 μM)",Growth Percent (NCI-H460),melting point,further results
"COc1cccc(NC(=O)Nc2ccc(-c3ccc(OC)c(OC)c3)nc2C)c1 [Compound 8m, 1-(6-(3,4-Dimethoxyphenyl)-2-methylpyridin-3-yl)-3-(3-methoxyphenyl) Urea]",47%,53.07%,10%,90.97%,81.00%,19%,90.54%,10%,95.22%,< 10%,< 10%,94.44%,100.68%,< 10%,94.75%,< 10%,< 10%,102.12%,243 to 245 °C,–
"COc1ccc(-c2ccc(NC(=O)Nc3cccc(C(F)(F)F)c3)c(C)n2)cc1 [Compound 8b, 1-(6-(4-Methoxyphenyl)-2-methylpyridin-3-yl)-3-(3-(trifluoromethyl)phenyl) Urea]",72%,28.48%,53%,47.63%,68.79%,32%,42.47%,58%,64.44%,36%,42%,58.09%,41.42%,59%,67.99%,33%,52%,48.67%,189 to 191 °C,IC50 (VEGFR-2): 5 ± 1.91 µM; IC50 [1]: 91.5 ± 4.53 µM
"COc1ccc(-c2ccc(NC(=O)Nc3cccc(C(F)(F)F)c3)c(C)n2)cc1OC [Compound 8i, 1-(6-(3,4-Dimethoxyphenyl)-2-methylpyridin-3-yl)-3-(3-(trifluoromethyl)phenyl) Urea]",60%,40.25%,29%,71.94%,55.33%,45%,60.26%,40%,92.59%,< 10%,28%,72.63%,66.90%,34%,92.32%,< 10%,39%,61.77%,235 to 237 °C,–
"COc1ccc(-c2ccc(NC(=O)Nc3ccc(Cl)cc3)c(C)n2)cc1 [Compound 8d, 1-(4-Chlorophenyl)-3-(6-(4-methoxyphenyl)-2-methylpyridin-3-yl) Urea]",33%,67.47%,< 10%,94.08%,81.02%,19%,68.26%,32%,65.27%,35%,< 10%,97.81%,92.90%,< 10%,81.25%,19%,36%,64.55%,231 to 232 °C,–
"COc1ccc(NC(=O)Nc2ccc(-c3ccc(OC)c(OC)c3)nc2C)cc1 [Compound 8n, 1-(6-(3,4-Dimethoxyphenyl)-2-methylpyridin-3-yl)-3-(4-methoxyphenyl) Urea]",51%,49.88%,33%,67.43%,73.37%,27%,57.02%,43%,86.96%,14%,42%,58.04%,91.15%,< 10%,56.53%,44%,83%,17.58%,253 to 254 °C,–
"1-(4-Chloro-4-(trifluoromethyl)cyclohexa-2,5-dien-1-yl)-3-(6-(3,4-dimethoxyphenyl)-2-methylpyridin-3-yl)urea [Compound 8l]",–,43.02%,–,71.36%,70.53%,–,44.62%,–,87.05%,–,–,72.73%,67.30%,–,77.10%,–,–,52.19%,–,"Percentage growth inhibition (GI%) (NCI-H522; NCI-H522, 10 μM): 57%; Percentage growth inhibition (GI%) (NCI-H23; NCI-H23, 10 μM): 29%; Percentage growth inhibition (GI%) (HOP-92; HOP-92, 10 μM): 30%; Percentage growth inhibition (GI%) (A549/ATCC; 10 μM): 56%; Percentage growth inhibition (GI%) (NCI-H322M; 10 μM): 13%; Percentage growth inhibition (GI%) (NCI-H226; NCI-H226, 10 μM): 28%; Percentage growth inhibition (GI%) (EKVX; 10 μM): 33%; Percentage growth inhibition (GI%) (HOP-62; HOP-62, 10 μM): 23%; Percentage growth inhibition (GI%) (NCI-H460; NCI-H460, 10 μM): 48%"
"COc1ccc(-c2ccc(NC(=O)Nc3cccc(Cl)c3)c(C)n2)cc1OC [Compound 8j, 1-(3-Chlorophenyl)-3-(6-(3,4-dimethoxyphenyl)-2-methylpyridin-3-yl) Urea]",41%,59.88%,11%,89.49%,60.18%,40%,61.64%,39%,85.92%,15%,< 10%,91.65%,83.81%,17%,77.77%,23%,17%,83.94%,249 to 250 °C,–
